Assay results as given in PMC12179616, “Novel and efficient synthesis of 5-chloro-6-methoxy-3-(2-((1-(aryl)-1H-1,2,3-triazol-4-yl)methoxy)ethyl)benzo[d]isoxazole derivatives as new α-glucosidase inhibitors” (Biochemistry and Biophysics Reports, 2025).
Values joined by “and” are separate entries in the source; they are usually repeats but may differ in a detail not shown here. Equal values may be shown once.

Experiments:
[1] = test system: Bacillus cereus (MTCC2128); assay: Antibacterial activity, agar well diffusion; assay type: cell-based; conditions: for zone of inhibition / inhibition in words: 25 μl
Description: (§1) The antibacterial activity was determined by using the agar well diffusion method [[50], [51], [52]]. Two bacterial strains were used to evaluate the antibacterial efficacy of the synthesized compounds: one Gram-positive strain, Bacillus cereus (MTCC2128), and one Gram-negative strain, Escherichia coli (MTCC2412). Sterilized Mueller Hinton Broth (MHB) was used to cultivate the bacterial strains, and the mixture was incubated for 18 h at 37 °C. To evaluate the antibacterial activity, the inhibition zone (RIZ) radius encircled each well was determined in millimeters. The experiments were carried out duplicates. The incubation period for the plates was from 72 to 96 h at a temperature of 37 °C. The zone of inhibition was then looked for on the plates.

[2] = test system: Escherichia coli (MTCC2412); assay: Antibacterial activity, agar well diffusion; assay type: cell-based
Description: as §1

[3] = biological target: α-glucosidase; conditions: Fig. 1; cited from earlier work

COc1cc2onc(CCOCc3cn(-c4cccc(Cl)c4)nn3)c2cc1Cl [Compound 9c, 5-Chloro-3-(2-((1-(3-chlorophenyl)-1H-1,2,3-triazol-4-yl)methoxy)ethyl)-6-methoxybenzo[d]isoxazole]
zone of inhibition [1]: 0.4 mm

COc1cc2onc(CCOCc3cn(-c4ccccc4C)nn3)c2cc1Cl [Compound 9f, 5-Chloro-6-methoxy-3-(2-((1-(o-tolyl)-1H-1,2,3-triazol-4-yl)methoxy)ethyl)benzo[d] isoxazole]
antibacterial activity in words [1]: showed antibacterial activity
zone of inhibition [1]: 0.5 mm

COc1cc2onc(CCOCc3cn(-c4ccccc4OC)nn3)c2cc1Cl [Compound 9g, 5-Chloro-6-methoxy-3-(2-((1-(2-methoxyphenyl)-1H-1,2,3-triazol-4-yl)methoxy)ethyl) benzo[d]isoxazole]
zone of inhibition ([2]; 75 μl): 0.9 mm
zone of inhibition ([2]; 100 μl): 1.2 mm

COc1ccc(-n2cc(COCCc3noc4cc(OC)c(Cl)cc34)nn2)cc1 [Compound 9h, 5-Chloro-6-methoxy-3-(2-((1-(4-methoxyphenyl)-1H-1,2,3-triazol-4-yl)methoxy)ethyl) benzo[d]isoxazole]
antibacterial activity in words [1]: showed antibacterial activity
zone of inhibition [1]: 0.5 mm

COc1cc2onc(CCOCc3cn(-c4ccc(Br)c(F)c4)nn3)c2cc1Cl [Compound 9i, 3-(2-((1-(4-Bromo-3-fluorophenyl)-1H-1,2,3-triazol-4-yl)methoxy)ethyl)-5-chloro-6-methoxybenzo[d]isoxazole]
inhibition in words [1]: moderate inhibition

COc1cc2onc(CCOCc3cn(-c4ccc(F)cc4)nn3)c2cc1Cl [Compound 9j, 5-Chloro-3-(2-((1-(4-fluorophenyl)-1H-1,2,3-triazol-4-yl)methoxy)ethyl)-6-methoxy benzo[d]isoxazole]
inhibition in words [1]: moderate inhibition

COc1cc2onc(CCOCc3cn(-c4ccccc4C(F)(F)F)nn3)c2cc1Cl [Compound 9k, 5-Chloro-6-methoxy-3-(2-((1-(2-(trifluoromethyl)phenyl)-1H-1,2,3-triazol-4-yl)methoxy)ethyl)benzo[d]isoxazole]
inhibition in words [1]: moderate inhibition

COc1cc2onc(CCOCc3cn(-c4ccc(C(F)(F)F)cc4)nn3)c2cc1Cl [Compound 9l, 5-chloro-6-methoxy-3-(2-((1-(4-(trifluoromethyl)phenyl)-1H-1,2,3-triazol-4-yl)methoxy)ethyl)benzo[d]isoxazole]
antibacterial activity in words [1]: showed antibacterial activity
zone of inhibition [1]: 0.5 mm and 0.4 mm

COc1cc2onc(CCOCc3cn(-c4ccc(C)c(C)c4)nn3)c2cc1Cl [Compound 9m, 5-Chloro-3-(2-((1-(3,4-dimethylphenyl)-1H-1,2,3-triazol-4-yl)methoxy)ethyl)-6-methoxy benzo[d]isoxazole]
inhibition in words [1]: moderate inhibition

COc1cc2onc(CCOCc3cn(-c4ccc(Br)cc4)nn3)c2cc1Cl [Compound 9n, 3-(2-((1-(4-Bromophenyl)-1H-1,2,3-triazol-4-yl)methoxy)ethyl)-5-chloro-6-methoxy benzo[d]isoxazole]
inhibition in words [1]: moderate inhibition

COc1cc2onc(CCOCc3cn(-c4ccc(Br)c(C(F)(F)F)c4)nn3)c2cc1Cl [Compound 9o, 3-(2-((1-(4-Bromo-3-(trifluoromethyl)phenyl)-1H-1,2,3-triazol-4-yl)methoxy)ethyl)-5-chloro-6-methoxybenzo[d]isoxazole]
inhibition in words [1]: moderate inhibition

O=C1Nc2ccccc2/C1=N/N=C/c1ccc(OCc2cn(Cc3ccccc3F)nn2)cc1 [III]
IC50 [3]: 16.4 µM

O=c1oc2ccccc2c(O)c1C(c1ccc(OCc2cn(-c3ccccc3Cl)nn2)cc1)c1c(O)c2ccccc2oc1=O [I]
IC50 [3]: 13 µM
